From the supplement of paper PMC11061612

Key:
Assay in all cases: Bliss excess, mean over the matrix (fraction); higher = more synergy
[1] = system: NCI-H1299 (Non-Small Cell Lung Carcinoma)
In short: (§1)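 After 24 hours at 37°C and 5% CO2 in 1536-well plates, cells in DMEM/F12 or RPMI plus 10% FBS received two-drug dose matrices for 72 hours. Viability came from CellTiter-Glo 2.0 luminescence and was scaled as inhibition, anchored at 0 by vehicle wells and at 1 by blank wells. Combination Emax is taken as the second-highest inhibition in the matrix, and Bliss excess as the observed combination effect less EA + EB − EA·EB, with EA and EB the single-agent effects.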

[2] = system: U-266 (Plasma Cell Myeloma)
In short: as §1

[3] = system: C3A (Hepatocellular Carcinoma)
In short: as §1

[4] = system: NALM-6 (B-Lymphoblastic Leukemia)
In short: as §1

[5] = system: HPAC (Pancreatic Carcinoma)
In short: as §1

[6] = system: COR-L95 (Small Cell Lung Carcinoma)
In short: as §1

[7] = system: SNU-C5 (Colorectal Carcinoma)
In short: as §1

[8] = system: HT-29 (Colorectal Carcinoma)
In short: as §1

[9] = system: SW756 (Cervical Carcinoma)
In short: as §1

[10] = system: LU-99A (Non-Small Cell Lung Carcinoma)
In short: as §1

[11] = system: OCI-AML2 (Acute Myeloid Leukemia)
In short: as §1

[12] = system: SW1783 (Low Grade Glioma)
In short: as §1

[13] = system: 697 (B-Lymphoblastic Leukemia)
In short: as §1

[14] = system: EM-2 (Chronic Myelogenous Leukemia)
In short: as §1

[15] = system: IHH-4 (Thyroid Gland Carcinoma)
In short: as §1

[16] = system: KARPAS-620 (Plasma Cell Myeloma)
In short: as §1

[17] = system: DB (B-Cell Non-Hodgkin's Lymphoma)
In short: as §1

SN12C (Kidney Carcinoma) = system: SN12C (Kidney Carcinoma)
In short: as §1

[18] = system: CFPAC-1 (Pancreatic Carcinoma)
In short: as §1

J82 (Bladder Carcinoma) = system: J82 (Bladder Carcinoma)
In short: as §1

Compound | Bliss excess [1] | Bliss excess [2] | Bliss excess [3] | Bliss excess [4] | Bliss excess [5] | Bliss excess [6] | Bliss excess [7] | Bliss excess [8] | Bliss excess [9] | Bliss excess [10] | Bliss excess [11] | Bliss excess [12] | Bliss excess [13] | Bliss excess [14] | Bliss excess [15] | Bliss excess [16] | Bliss excess [17] | Bliss excess (SN12C (Kidney Carcinoma)) | Bliss excess [18] | Bliss excess (J82 (Bladder Carcinoma))
COc1nnc2ccc(N3CCC(c4ccc(OCCN5CCN(C)C(=O)[C@H]5C)cc4)CC3)nn12 [AZD5153] + C=CCn1c(=O)c2cnc(Nc3ccc(N4CCN(C)CC4)cc3)nc2n1-c1cccc(C(C)(C)O)n1 [AZD1775] (first compound max 1 µM, partner max 1 µM) | -0.0278 | -0.0922 | 0.0547 | -0.0559 | -0.111 | 0.0012 | -0.0291 | -0.0532 | -0.05 | -0.02 | -0.0293 | -0.0531 | -0.0478 | -0.0217 | -0.0294 | -0.0559 | -0.0996 | -0.128 | -0.119 | 0.0514
CC1(C)CCC(CN2CCN(c3ccc(C(=O)NS(=O)(=O)c4ccc(NCC5CCOCC5)c([N+](=O)[O-])c4)c(Oc4cnc5[nH]ccc5c4)c3)CC2)=C(c2ccc(Cl)cc2)C1 [Venetoclax] + C[C@@H](Nc1cc(F)cc(F)c1)c1cc(C(=O)N(C)C)cc2c(=O)cc(N3CCOCC3)oc12 [AZD8186] (first compound max 1 µM, 7x7, partner max 3 µM) | -0.0492 | 0.0357 | -0.0803 | 0.0348 | -0.0029 | 0.095 | -0.0308 | -0.0255 | -0.0452 | -0.0412 | -0.0033 | -0.0258 | -0.0458 | 0.0104 | 0.0138 | -0.0022 | -0.0332 | -0.0777 | 0.0034 | -0.0213
COc1nnc2ccc(N3CCC(c4ccc(OCCN5CCN(C)C(=O)[C@H]5C)cc4)CC3)nn12 [AZD5153] + CC1(C)CCC(CN2CCN(c3ccc(C(=O)NS(=O)(=O)c4ccc(NCC5CCOCC5)c([N+](=O)[O-])c4)c(Oc4cnc5[nH]ccc5c4)c3)CC2)=C(c2ccc(Cl)cc2)C1 [Venetoclax] (first compound max 1 µM, 7x7, partner max 1 µM) | -0.0496 | -0.157 | -0.105 | -0.0678 | -0.0507 | 0.0382 | -0.077 | -0.0288 | -0.0461 | -0.0853 | -0.0422 | -0.0347 | -0.0358 | -0.0384 | -0.0621 | -0.0637 | -0.0114 | -0.0343 | -0.0228 | -0.0672
CC1(C)CCC(CN2CCN(c3ccc(C(=O)NS(=O)(=O)c4ccc(NCC5CCOCC5)c([N+](=O)[O-])c4)c(Oc4cnc5[nH]ccc5c4)c3)CC2)=C(c2ccc(Cl)cc2)C1 [Venetoclax] + Cn1cnc2c(F)c(Nc3ccc(Br)cc3Cl)c(C(=O)NOCCO)cc21 [Selumetinib] (first compound max 1 µM, 7x7, partner max 3 µM) | -0.0424 | 0.0137 | -0.017 | 0.168 | -0.0515 | -0.0265 | -0.0248 | -0.0261 | -0.0537 | -0.0484 | 0.014 | -0.0595 | -0.0001 | -0.055 | -0.0176 | 0.16 | -0.0192 | -0.0489 | -0.0142 | -0.028
C[C@@H](c1ccc2nccn2c1)n1nnc2ncc(-c3cnn(C)c3)nc21 [Savolitinib] + CC1(C)CCC(CN2CCN(c3ccc(C(=O)NS(=O)(=O)c4ccc(NCC5CCOCC5)c([N+](=O)[O-])c4)c(Oc4cnc5[nH]ccc5c4)c3)CC2)=C(c2ccc(Cl)cc2)C1 [Venetoclax] (first compound max 1 µM, 7x7, partner max 1 µM) | -0.0418 | -0.0118 | -0.0545 | 0.01 | -0.084 | 0.0069 | -0.0596 | -0.0358 | -0.0923 | -0.0746 | -0.0246 | -0.0442 | -0.114 | -0.0593 | -0.0399 | -0.0449 | 0.0216 | -0.0152 | -0.0514 | -0.0895
Cc1c2c(nn1C)CSCc1cc(n(C)n1)CSc1cc(c3ccccc3c1)OCCCc1c(C(=O)O)n(C)c3c-2c(Cl)ccc13 [AZD5991] + Cn1cnc2c(F)c(Nc3ccc(Br)cc3Cl)c(C(=O)NOCCO)cc21 [Selumetinib] (first compound max 1 µM, 7x7, partner max 3 µM) | -0.0039 | 0.0068 | -0.0476 | 0.0165 | 0.005 | -0.039 | -0.0107 | -0.006 | -0.0058 | -0.0363 | 0.0107 | -0.0782 | -0.0462 | -0.0053 | -0.026 | 0.0919 | 0.0063 | -0.0425 | 0.0044 | -0.0073
Cc1c2c(nn1C)CSCc1cc(n(C)n1)CSc1cc(c3ccccc3c1)OCCCc1c(C(=O)O)n(C)c3c-2c(Cl)ccc13 [AZD5991] + C[C@@H]1COCCN1C2=NC(=NC(=C2)C3(CC3)[S@](=N)(=O)C)C4=C5C=CNC5=NC=C4 [AZD6738] (first compound max 1 µM, 7x7, partner max 10 µM) | 0.0159 | 0.0624 | 0.0412 | -0.0114 | 0.0409 | 0.0482 | -0.011 | 0.0165 | 0.02 | -0.0152 | 0.0168 | 0.0272 | 0.0058 | 0.0299 | 0.0349 | 0.0243 | 0.0042 | -0.0144 | 0.0442 | 0.0009
NC1(C(=O)N[C@@H](CCO)c2ccc(Cl)cc2)CCN(c2ncnc3[nH]ccc23)CC1 [Capivasertib] + CCN(CCO)CCCOc1ccc2c(Nc3cc(CC(=O)Nc4cccc(F)c4)[nH]n3)ncnc2c1 [AZD2811] (first compound max 10 µM, 7x7, partner max 1 µM) | 0.0012 | -0.105 | -0.0156 | -0.0987 | -0.049 | -0.0075 | -0.0571 | -0.0137 | -0.0299 | 0.0154 | 0.0134 | -0.0236 | -0.0593 | -0.0463 | 0.0289 | 0.0272 | 0.0338 | -0.0536 | 0.0281 | -0.0018
COc1nnc2ccc(N3CCC(c4ccc(OCCN5CCN(C)C(=O)[C@H]5C)cc4)CC3)nn12 [AZD5153] + Cn1cnc2c(F)c(Nc3ccc(Br)cc3Cl)c(C(=O)NOCCO)cc21 [Selumetinib] (first compound max 1 µM, 7x7, partner max 10 µM) | -0.0243 | 0.0347 | -0.0272 | 0.0085 | 0.0161 | -0.0561 | -0.0116 | -0.0281 | 0.0167 | -0.0118 | 0.0311 | -0.0214 | -0.0389 | 0.0468 | 0.0085 | 0.112 | 0.0093 | 0.0158 | -0.0149 | 0.014
Cc1cc2ncnn2cc1Nc1ncc2c(n1)n(C1CCOCC1)c(=O)n2C [AZD7648] + CN(C)CCCOc1ccc(-c2ccc3ncc4c(c3c2)n(C2CCOCC2)c(=O)n4C)cn1 [AZD0156] (first compound max 10 µM, 7x7, partner max 1 µM) | 0.0177 | 0.018 | -0.032 | -0.0184 | -0.0025 | -0.0218 | 0.0202 | 0.0289 | 0.0076 | -0.0208 | -0.022 | -0.0078 | -0.0136 | 0.0183 | 0.0352 | -0.0373 | -0.0402 | -0.0388 | 0.0064 | -0.0131
C[C@@H]1COCCN1c1cc(C2([S@](C)(=N)=O)CC2)nc(-c2ccnc3[nH]ccc23)n1 [AZD6738] + O=C(c1cc(Cc2n[nH]c(=O)c3ccccc23)ccc1F)N1CCN(C(=O)C2CC2)CC1 [Olaparib] (first compound max 10 µM, 7x7, partner max 10 µM) | -0.0365 | 0.0151 | -0.0039 | 0.0015 | 0.0125 | -0.0399 | -0.0258 | -0.0014 | -0.0158 | -0.0289 | 0.0013 | 0.0376 | 0.0073 | 0.0026 | 0.0506 | -0.0168 | -0.0359 | -0.0284 | -0.0069 | 0.031
CC1(C)CCC(CN2CCN(c3ccc(C(=O)NS(=O)(=O)c4ccc(NCC5CCOCC5)c([N+](=O)[O-])c4)c(Oc4cnc5[nH]ccc5c4)c3)CC2)=C(c2ccc(Cl)cc2)C1 [Venetoclax] + C=CCn1c(=O)c2cnc(Nc3ccc(N4CCN(C)CC4)cc3)nc2n1-c1cccc(C(C)(C)O)n1 [AZD1775] (first compound max 1 µM, partner max 1 µM) | 0.0038 | 0.104 | -0.0511 | 0.119 | -0.0565 | 0.001 | -0.0339 | 0.008 | -0.0401 | -0.0533 | 0.0028 | -0.0007 | 0.0509 | -0.0094 | -0.0654 | 0.0191 | 0.0119 | 0 | -0.0185 | -0.0832
Cc1cc2ncnn2cc1Nc1ncc2c(n1)n(C1CCOCC1)c(=O)n2C [AZD7648] + O=C(c1cc(Cc2n[nH]c(=O)c3ccccc23)ccc1F)N1CCN(C(=O)C2CC2)CC1 [Olaparib] (first compound max 10 µM, 7x7, partner max 10 µM) | -0.03 | -0.0247 | -0.0505 | -0.027 | -0.0261 | -0.0158 | -0.0064 | -0.0265 | -0.0174 | -0.0556 | -0.0289 | -0.042 | 0.0076 | 0.0036 | -0.0313 | -0.0306 | -0.0564 | -0.0469 | -0.0567 | 0.0357
COc1nnc2ccc(N3CCC(c4ccc(OCCN5CCN(C)C(=O)[C@H]5C)cc4)CC3)nn12 [AZD5153] + C[C@@H]1COCCN1C2=NC(=NC(=C2)C3(CC3)[S@](=N)(=O)C)C4=C5C=CNC5=NC=C4 [AZD6738] (first compound max 1 µM, 7x7, partner max 10 µM) | -0.0088 | -0.079 | 0.0348 | -0.0624 | 0.0368 | -0.0357 | 0.0359 | -0.0307 | 0.0204 | -0.0213 | -0.0143 | 0.0235 | -0.0106 | 0.039 | -0.0118 | -0.0429 | 0.0071 | -0.0091 | 0.015 | 0.104
